From the supplement of paper PMC13207355

How the values were obtained:
Settings in all cases: exposure time: 72 h
E13 [1] = patient-derived glioblastoma stem cells of classical subtype; assay: phenotypic distance (Euclidean, principal components) from DMSO controls (arbitrary units); higher = stronger morphological change
E28 [2] = patient-derived glioblastoma stem cells of classical subtype; assay: as above
FT3469 [3] = normal neural stem cell line; assay: as above
E57 [4] = patient-derived glioblastoma stem cells of mesenchymal subtype; assay: as above
E31 [5] = patient-derived glioblastoma stem cells of proneural subtype; assay: as above
E21 [6] = patient-derived glioblastoma stem cells of mesenchymal subtype; assay: as above
E34 [7] = patient-derived glioblastoma stem cells of proneural subtype; assay: as above
E13 [8] = assay: surviving fraction (nuclei count normalised to DMSO); higher = more cells surviving (less toxic)
E28 [9] = assay: as above
FT3469 [10] = assay: as above
E57 [11] = assay: as above
E31 [12] = assay: as above
E21 [13] = assay: as above
E34 [14] = assay: as above
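Wherever phenotypic distance (Euclidean, principal components) from DMSO controls is given: cell Painting imaging in 384-well plates, CellProfiler features reduced to at least 20 principal components, Euclidean distance versus same-plate DMSO vehicle wells (0.1% v/v), median over six images per well.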
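Wherever surviving fraction (nuclei count normalised to DMSO) is given: nuclei counted by high-content imaging of Hoechst-stained cells in laminin-coated 384-well plates, relative to 0.1% DMSO vehicle wells, with staurosporine as cell-death control.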

COc1c(N2CCNC(C)C2)c(F)cc2c(=O)c(C(=O)O)cn(C3CC3)c12 (stereo not drawn) [Gatifloxacin]
Settings | phenotypic distance | surviving fraction
E13 [1], 4.1 nM | 0.675 | –
E13 [1], 12.3 nM | 0.638 | –
E13 [1], 37 nM | 0.734 | –
E13 [1], 111.1 nM | 0.5 | –
E13 [1], 333.3 nM | 0.838 | –
E13 [1], 1000 nM | 0.825 | –
E13 [1], 3000 nM | 0.702 | –
E13 [8], 4.1 nM | – | 0.802
E13 [8], 12.3 nM | – | 0.892
E13 [8], 37 nM | – | 0.946
E13 [8], 111.1 nM | – | 0.909
E13 [8], 333.3 nM | – | 1.06
E13 [8], 1000 nM | – | 0.806
E13 [8], 3000 nM | – | 0.89
E21 [6], 4.1 nM | 1 | –
E21 [6], 12.3 nM | 0.609 | –
E21 [6], 37 nM | 0.741 | –
E21 [6], 111.1 nM | 0.873 | –
E21 [6], 333.3 nM | 0.581 | –
E21 [6], 1000 nM | 1 | –
E21 [6], 3000 nM | 0.84 | –
E21 [13], 4.1 nM | – | 0.949
E21 [13], 12.3 nM | – | 0.874
E21 [13], 37 nM | – | 0.875
E21 [13], 111.1 nM | – | 0.802
E21 [13], 333.3 nM | – | 0.988
E21 [13], 1000 nM | – | 0.814
E21 [13], 3000 nM | – | 0.929
E28 [2], 4.1 nM | 0.347 | –
E28 [2], 12.3 nM | 0.661 | –
E28 [2], 37 nM | 0.66 | –
E28 [2], 111.1 nM | 0.527 | –
E28 [2], 333.3 nM | 0.675 | –
E28 [2], 1000 nM | 0.514 | –
E28 [2], 3000 nM | 0.819 | –
E28 [9], 4.1 nM | – | 0.883
E28 [9], 12.3 nM | – | 0.852
E28 [9], 37 nM | – | 0.951
E28 [9], 111.1 nM | – | 0.859
E28 [9], 333.3 nM | – | 0.769
E28 [9], 1000 nM | – | 0.982
E28 [9], 3000 nM | – | 1.01
E31 [5], 4.1 nM | 0.659 | –
E31 [5], 12.3 nM | 2.43 | –
E31 [5], 37 nM | 0.809 | –
E31 [5], 111.1 nM | 0.741 | –
E31 [5], 333.3 nM | 0.52 | –
E31 [5], 1000 nM | 0.474 | –
E31 [5], 3000 nM | 0.691 | –
E31 [12], 4.1 nM | – | 1.03
E31 [12], 12.3 nM | – | 0.99
E31 [12], 37 nM | – | 0.946
E31 [12], 111.1 nM | – | 0.898
E31 [12], 333.3 nM | – | 1.01
E31 [12], 1000 nM | – | 1.04
E31 [12], 3000 nM | – | 1.24
E34 [7], 4.1 nM | 0.671 | –
E34 [7], 12.3 nM | 0.619 | –
E34 [7], 37 nM | 0.973 | –
E34 [7], 111.1 nM | 0.498 | –
E34 [7], 333.3 nM | 0.426 | –
E34 [7], 1000 nM | 0.62 | –
E34 [7], 3000 nM | 0.52 | –
E34 [14], 4.1 nM | – | 0.932
E34 [14], 12.3 nM | – | 0.945
E34 [14], 37 nM | – | 1.06
E34 [14], 111.1 nM | – | 0.967
E34 [14], 333.3 nM | – | 1.09
E34 [14], 1000 nM | – | 0.908
E34 [14], 3000 nM | – | 0.955
E57 [4], 4.1 nM | 0.413 | –
E57 [4], 12.3 nM | 0.404 | –
E57 [4], 37 nM | 0.488 | –
E57 [4], 111.1 nM | 0.447 | –
E57 [4], 333.3 nM | 0.584 | –
E57 [4], 1000 nM | 0.465 | –
E57 [4], 3000 nM | 0.475 | –
E57 [11], 4.1 nM | – | 0.966
E57 [11], 12.3 nM | – | 1.04
E57 [11], 37 nM | – | 0.993
E57 [11], 111.1 nM | – | 1.05
E57 [11], 333.3 nM | – | 1.06
E57 [11], 1000 nM | – | 1.05
E57 [11], 3000 nM | – | 1.05
FT3469 [3], 4.1 nM | 1.03 | –
FT3469 [3], 12.3 nM | 0.624 | –
FT3469 [3], 37 nM | 0.658 | –
FT3469 [3], 111.1 nM | 0.568 | –
FT3469 [3], 333.3 nM | 0.713 | –
FT3469 [3], 1000 nM | 0.561 | –
FT3469 [3], 3000 nM | 1.24 | –
FT3469 [10], 4.1 nM | – | 0.737
FT3469 [10], 12.3 nM | – | 0.928
FT3469 [10], 37 nM | – | 0.867
FT3469 [10], 111.1 nM | – | 0.774
FT3469 [10], 333.3 nM | – | 0.957
FT3469 [10], 1000 nM | – | 0.995
FT3469 [10], 3000 nM | – | 0.79
